Results reported in patent US20250195521A1 (Revolution Medicines, Inc., priority 2020, published 2025).
Where two headings read alike, the source gives them in different places.

Key:
KRAS G12V = KRAS G12V (Homo sapiens (Human), UniProt P01116+P62937, G12V); test: Ras-Raf disruption/FRET/MOA assay (BRAF RBD, Cyclophilin A); type: biochemical; details: read-out: KRAS G12V FRET IC50
Outline: (§1)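 His6-K-Ras-GMPPNP (12.5 nM), GST-BRAF RBD (50 nM) and tagless Cyclophilin A (25 μM) were combined in 25 mM HEPES pH 7.3 with 100 mM NaCl, 5 mM MgCl2, 0.1% BSA and 0.002% Tween20, with compound as a 10-point 3-fold series from 30 μM final, then incubated 3 h at 25° C.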

KRAS G12C = KRAS G12C (Homo sapiens (Human), UniProt P01116+P62937, G12C); test: as above; type: biochemical; details: read-out: KRAS G12C FRET IC50
Outline: as §1

KRAS G13C = KRAS G13C (Homo sapiens (Human), UniProt P01116+P62937, G13C); test: as above; type: biochemical; details: read-out: KRAS G13C FRET IC50
Outline: as §1

KRAS G12D = KRAS G12D (Homo sapiens (Human), UniProt P01116+P62937, G12D); test: as above; type: biochemical; details: read-out: KRAS G12D FRET IC50
Outline: as §1

NRAS G12C = NRAS G12C (Homo sapiens (Human), UniProt P01111+P62937, G12C); test: as above; type: biochemical; details: read-out: NRAS G12C FRET data IC50
Outline: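 TR-FRET read after 1.5 h with 10 nM anti-His Eu-W1024 and 50 nM anti-GST APC, following 3 h at 25 °C of GMPPNP-loaded His6-Ras (12.5 nM), GST-BRAF RBD (50 nM) and Cyclophilin A (25 μM) with compound from 30 μM final, 10 points, 3-fold. IC50 reported; pH 7.3 HEPES, 100 mM NaCl.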

KRAS WT = KRAS WT (Homo sapiens (Human), UniProt P01116+P62937); test: as above; type: biochemical; details: read-out: KRAS WT FRET data IC50
Outline: as §1

KRAS G12S = KRAS G12S (Homo sapiens (Human), UniProt P01116+P62937, G12S); test: as above; type: biochemical; details: read-out: KRAS G12S FRET IC50
Outline: as §1

KRAS G13D = KRAS G13D (Homo sapiens (Human), UniProt P01116+P62937, G13D); test: as above; type: biochemical; details: read-out: KRAS G13D FRET data IC50
Outline: as §1

[1] = system: Capan-1 cells (K-Ras G12V); test: CellTiter-Glo cell viability, Capan-1; type: cell-based, human; details: Homo sapiens, CAPAN-1, 120 h, read-out: Capan-1 Cell Viability IC50
Outline: (§2)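 Endpoint: CellTiter-Glo luminescence on day 5, following ~30 min at room temperature. Data as (sample/mean DMSO)×100, four-parameter logistic fit.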

[2] = system: K-Ras G12C (NCI-H358 cells); test: Potency assay: pERK in NCI-H358 cells; type: cell-based, human; details: Homo sapiens, read-out: pERK EC50 (H358 KRAS G12C)
Outline: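 Cells plated the day before were exposed for 4 h at 37° C, 5% CO2 to a 10-point, 3-fold DMSO dilution series (10 mM top stock), in duplicate. Phospho-ERK was read by AlphaLISA SureFire Ultra or by In-Cell Western with DRAQ5 DNA stain, and IC50 came from a 4-parameter sigmoidal fit.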

[3] = system: NCI-H358 cells (K-Ras G12C); test: CellTiter-Glo cell viability, NCI-H358; type: cell-based, human; details: Homo sapiens, NCI-H358, 120 h, read-out: H358 Cell Viability IC50
Outline: as §2

KRAS WT, sequence (P01116 other isoform, or with tags, fused parts or gaps): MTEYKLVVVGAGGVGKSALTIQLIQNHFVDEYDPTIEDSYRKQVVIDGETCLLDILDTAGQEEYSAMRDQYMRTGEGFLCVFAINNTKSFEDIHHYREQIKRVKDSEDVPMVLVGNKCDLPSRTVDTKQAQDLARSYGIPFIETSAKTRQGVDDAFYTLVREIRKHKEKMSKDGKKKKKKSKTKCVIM
KRAS WT, sequence (P62937 whole entry): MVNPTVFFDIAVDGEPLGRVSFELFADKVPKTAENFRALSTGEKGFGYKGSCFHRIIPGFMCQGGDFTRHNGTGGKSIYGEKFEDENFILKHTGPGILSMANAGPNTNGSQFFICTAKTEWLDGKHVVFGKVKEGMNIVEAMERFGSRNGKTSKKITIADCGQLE
NRAS G12C, sequence (P01111 whole entry G12C): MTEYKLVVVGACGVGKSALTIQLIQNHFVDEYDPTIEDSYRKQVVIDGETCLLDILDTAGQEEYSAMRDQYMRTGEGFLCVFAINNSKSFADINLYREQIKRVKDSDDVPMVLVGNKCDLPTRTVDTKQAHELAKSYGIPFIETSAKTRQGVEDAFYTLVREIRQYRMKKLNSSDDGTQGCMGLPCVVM
NRAS G12C, sequence (P62937 whole entry): as the sequence (P62937 whole entry) above
KRAS G13C, sequence (P01116 other isoform, or with tags, fused parts or gaps G13C): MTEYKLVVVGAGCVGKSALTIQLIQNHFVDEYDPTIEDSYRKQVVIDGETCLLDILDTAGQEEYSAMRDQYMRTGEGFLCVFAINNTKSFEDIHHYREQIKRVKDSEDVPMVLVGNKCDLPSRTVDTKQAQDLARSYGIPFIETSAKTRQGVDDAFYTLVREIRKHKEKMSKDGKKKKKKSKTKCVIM
KRAS G13C, sequence (P62937 whole entry): as the sequence (P62937 whole entry) above
KRAS G12V, sequence (P01116 other isoform, or with tags, fused parts or gaps G12V): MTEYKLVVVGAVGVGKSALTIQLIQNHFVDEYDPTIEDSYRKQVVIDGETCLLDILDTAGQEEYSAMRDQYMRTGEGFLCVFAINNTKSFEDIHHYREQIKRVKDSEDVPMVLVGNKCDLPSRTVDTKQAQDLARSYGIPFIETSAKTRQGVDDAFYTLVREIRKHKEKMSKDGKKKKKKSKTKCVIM
KRAS G12V, sequence (P62937 whole entry): as the sequence (P62937 whole entry) above
KRAS G13D, sequence (P01116 other isoform, or with tags, fused parts or gaps G13D): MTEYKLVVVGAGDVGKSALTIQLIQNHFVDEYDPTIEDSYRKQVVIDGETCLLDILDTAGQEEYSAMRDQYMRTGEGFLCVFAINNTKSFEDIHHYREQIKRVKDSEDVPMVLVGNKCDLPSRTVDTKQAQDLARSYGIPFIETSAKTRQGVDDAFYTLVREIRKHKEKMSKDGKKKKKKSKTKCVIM
KRAS G13D, sequence (P62937 whole entry): as the sequence (P62937 whole entry) above
KRAS G12C, sequence (P01116-2 other isoform, or with tags, fused parts or gaps G12C): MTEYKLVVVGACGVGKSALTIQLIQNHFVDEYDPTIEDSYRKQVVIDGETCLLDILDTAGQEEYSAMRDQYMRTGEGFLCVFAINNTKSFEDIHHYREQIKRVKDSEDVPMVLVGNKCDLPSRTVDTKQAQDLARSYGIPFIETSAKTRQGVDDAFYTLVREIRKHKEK
KRAS G12C, sequence (P62937 whole entry): as the sequence (P62937 whole entry) above
KRAS G12D, sequence (P01116 other isoform, or with tags, fused parts or gaps G12D): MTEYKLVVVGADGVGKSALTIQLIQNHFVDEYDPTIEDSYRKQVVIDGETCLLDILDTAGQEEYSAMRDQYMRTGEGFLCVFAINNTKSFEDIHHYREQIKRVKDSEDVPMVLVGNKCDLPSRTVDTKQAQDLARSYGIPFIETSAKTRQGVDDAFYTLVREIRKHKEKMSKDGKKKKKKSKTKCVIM
KRAS G12D, sequence (P62937 whole entry): as the sequence (P62937 whole entry) above
KRAS G12S, sequence (P01116 other isoform, or with tags, fused parts or gaps G12S): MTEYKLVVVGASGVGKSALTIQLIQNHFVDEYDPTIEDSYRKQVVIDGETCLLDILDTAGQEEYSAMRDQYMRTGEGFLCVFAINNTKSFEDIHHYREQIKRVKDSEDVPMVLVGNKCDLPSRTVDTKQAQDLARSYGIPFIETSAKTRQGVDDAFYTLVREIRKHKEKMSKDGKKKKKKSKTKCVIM
KRAS G12S, sequence (P62937 whole entry): as the sequence (P62937 whole entry) above

SMILES	IC50 (KRAS G12V)	IC50 (KRAS G12C)	IC50 (KRAS G13C)	IC50 (KRAS G12D)	IC50 (NRAS G12C)	IC50 (KRAS WT)	IC50 (KRAS G12S)	IC50 (KRAS G13D)	IC50 ([1]; K-Ras G12V, 5-day treatment)	EC50 ([2]; NCI-H358 cells, 4 hours)	IC50 ([3]; K-Ras G12C, 5-day treatment)	IC50 [1]	EC50 ([2]; NCI-H358, 4 h)	IC50 [3]
CCn1c(-c2cccnc2COC)c2c3cc(ccc31)-c1cc(O)cc(c1)C[C@H](NC(=O)[C@H](C(C)C)N(C)C(=O)OC1COC1)C(=O)N1CCC[C@H](N1)C(=O)OCC(C)(C)C2 [Compound A39]	100 to 1000 nM	100 to 1000 nM	100 to 1000 nM	1000 to 10000 nM	100 to 1000 nM	100 to 1000 nM	100 to 1000 nM	100 to 1000 nM	100 to 1000 nM	< 5000 nM	100 to 1000 nM			
CCn1c(-c2cnccc2COC)c2c3cc(ccc31)-c1cc(O)cc(c1)C[C@H](NC(=O)[C@H](C(C)C)N1CCCC1=O)C(=O)N1CCC[C@H](N1)C(=O)OCC(C)(C)C2 [Compound A40]	100 to 1000 nM	100 to 1000 nM	100 to 1000 nM	1000 to 10000 nM	100 to 1000 nM	100 to 1000 nM	100 to 1000 nM	100 to 1000 nM	1000 to 10000 nM	< 5000 nM	1000 to 10000 nM			
CCn1c(-c2cnccc2COC)c2c3cc(ccc31)-c1cc(O)cc(c1)C[C@H](NC(=O)[C@H](C(C)C)N(C)C(=O)[C@H]1CCCN1C)C(=O)N1CCC[C@H](N1)C(=O)OCC(C)(C)C2 [Compound A83]	100 to 1000 nM	100 to 1000 nM	100 to 1000 nM	100 to 1000 nM	100 to 1000 nM	100 to 1000 nM	100 to 1000 nM	100 to 1000 nM	1000 to 10000 nM	< 5000 nM	1000 to 10000 nM			
CCn1c(-c2cccnc2[C@H](C)OC)c2c3cc(ccc31)-c1cc(O)cc(c1)C[C@H](NC(=O)[C@H](C(C)C)N(C)C(=O)O[C@H]1CCN(C)C1)C(=O)N1CCC[C@H](N1)C(=O)OCC(C)(C)C2 [Compound A169]	1000 to 10000 nM	100 to 1000 nM	10 to 100 nM	100 to 1000 nM	100 to 1000 nM	100 to 1000 nM	100 to 1000 nM	10 to 100 nM	100 to 1000 nM	< 5000 nM	100 to 1000 nM			
CCn1c(-c2cccnc2[C@H](C)OC)c2c3cc(ccc31)-c1cc(O)cc(c1)C[C@H](NC(=O)[C@H](C(C)C)N(C)C(=O)[C@H]1CCN(C(=O)OC3CC3)C1)C(=O)N1CCC[C@H](N1)C(=O)OCC(C)(C)C2 [Compound A202]	10 to 100 nM	10 to 100 nM	10 to 100 nM	100 to 1000 nM	10 to 100 nM	10 to 100 nM	10 to 100 nM	10 to 100 nM	10 to 100 nM	< 5000 nM	10 to 100 nM			
CCn1c(-c2cccnc2[C@H](C)OC)c2c3cc(ccc31)-c1cc(O)cc(c1)C[C@H](NC(=O)[C@H](C(C)C)N(C)C(=O)C1CCc3ncccc3C1)C(=O)N1CCC[C@H](N1)C(=O)OCC(C)(C)C2 (some centres unmarked) [Compound A247]	10 to 100 nM	10 to 100 nM	10 to 100 nM	10 to 100 nM	10 to 100 nM	10 to 100 nM	10 to 100 nM	10 to 100 nM	10 to 100 nM	< 5000 nM	10 to 100 nM			
CCn1c(-c2cccnc2[C@H](C)OC)c2c3cc(ccc31)-c1csc(n1)C[C@H](NC(=O)[C@H](C(C)C)N(C)C(=O)N1CC3CC(C1)O3)C(=O)N1CCC[C@H](N1)C(=O)OCC(C)(C)C2 [Compound A301]	100 to 1000 nM	100 to 1000 nM	1000 to 10000 nM	1000 to 10000 nM	100 to 1000 nM	100 to 1000 nM	100 to 1000 nM	1000 to 10000 nM				100 to 1000 nM	< 5000 nM	10 to 100 nM
